From patent publication US20240174662A1, “SMALL MOLECULE INHIBITORS OF SALT INDUCIBLE KINASES” (Janssen Biotech, Inc., priority 2021, published 2024)

Biological target: SIK2 (Homo sapiens (Human), UniProt Q9H0K1)
Test: SIK2 Enzymatic Assay Version 2 (High ATP)
Assay type: biochemical
Conditions: 3 mM ATP and 200 μM HDAC5tide final, ADP-Glo Max luminescence
Outline: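 Luminescent ADP-Glo Max read-out: depletion reagent 2 h, then detection reagent 1 h. Before the reaction, compounds were incubated 30 min with enzyme added at 6 nM (twice final concentration), with all steps at room temperature.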

Chain of SIK2 (Q9H0K1 whole entry, species assumed): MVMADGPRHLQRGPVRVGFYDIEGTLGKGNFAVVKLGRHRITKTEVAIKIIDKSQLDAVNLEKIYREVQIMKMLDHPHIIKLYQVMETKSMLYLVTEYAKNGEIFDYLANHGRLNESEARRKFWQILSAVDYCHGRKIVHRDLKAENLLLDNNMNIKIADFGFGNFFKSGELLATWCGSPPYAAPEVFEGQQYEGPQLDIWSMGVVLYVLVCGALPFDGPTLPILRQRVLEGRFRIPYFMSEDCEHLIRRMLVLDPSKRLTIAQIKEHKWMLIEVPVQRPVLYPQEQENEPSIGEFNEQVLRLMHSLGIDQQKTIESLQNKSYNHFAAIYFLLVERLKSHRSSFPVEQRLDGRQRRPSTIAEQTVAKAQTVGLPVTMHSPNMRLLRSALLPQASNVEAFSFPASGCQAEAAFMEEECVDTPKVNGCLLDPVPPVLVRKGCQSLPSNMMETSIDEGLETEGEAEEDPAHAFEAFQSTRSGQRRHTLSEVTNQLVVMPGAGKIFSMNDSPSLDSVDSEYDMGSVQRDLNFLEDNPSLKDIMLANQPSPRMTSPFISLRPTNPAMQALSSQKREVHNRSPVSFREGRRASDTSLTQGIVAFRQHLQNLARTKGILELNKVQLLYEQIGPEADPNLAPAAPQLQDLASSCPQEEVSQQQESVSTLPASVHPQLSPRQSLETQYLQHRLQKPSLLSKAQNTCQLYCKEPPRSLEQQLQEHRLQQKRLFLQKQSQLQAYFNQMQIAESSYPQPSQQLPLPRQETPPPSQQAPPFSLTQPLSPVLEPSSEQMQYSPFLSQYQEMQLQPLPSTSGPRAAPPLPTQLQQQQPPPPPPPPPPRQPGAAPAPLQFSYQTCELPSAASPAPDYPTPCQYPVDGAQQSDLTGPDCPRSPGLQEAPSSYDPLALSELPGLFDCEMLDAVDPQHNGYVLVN

| SMILES | IC50 [nM] |
| --- | --- |
| CN1CC[C@@H]1COc1cnn(C)c1-c1ccn2nc(Nc3ccnc(NC4CC4)n3)cc2c1 [Example 128, N2-cyclopropyl-N4-[5-[2-methyl-4-[[(2R)-1-methylazetidin-2-yl]methoxy]pyrazol-3-yl]pyrazolo[1,5-a]pyridin-2-yl]pyrimidine-2,4-diamine] | < 0.847 |
| CCN1CC[C@@H]1COc1cnn(C(F)F)c1-c1ccn2nc(Nc3cc(C)nc(C)n3)cc2c1 [Example 479, 5-[2-(difluoromethyl)-4-[[(2R)-1-ethylazetidin-2-yl]methoxy]pyrazol-3-yl]-N-(2,6-dimethylpyrimidin-4-yl)pyrazolo[1,5-a]pyridin-2-amine] | 1.1 |
| Cc1onc(OC[C@@H]2CCCN2C)c1-c1ccn2nc(NC(=O)C3CC3)cc2c1 [Example 500, N-[5-[5-methyl-3-[[(2S)-1-methylpyrrolidin-2-yl]methoxy]isoxazol-4-yl]pyrazolo[1,5-a]pyridin-2-yl]cyclopropanecarboxamide] | 431 |
| Cc1cc(Nc2cc3cc(-c4c(OC[C@H]5CCN5C)cnn4C)ccn3n2)nc(C(=O)N(C)C)n1 [Example 110, N,N,4-trimethyl-6-[[5-[2-methyl-4-[[(2R)-1-methylazetidin-2-yl]methoxy]pyrazol-3-yl]pyrazolo[1,5-a]pyridin-2-yl]amino]pyrimidine-2-carboxamide] | 2.8 |
| Cc1onc(OC2CCN(C)CC2)c1-c1ccn2nc(NC(=O)C3CC3)cc2c1 [Example 493, N-[5-[5-methyl-3-[(1-methyl-4-piperidyl)oxy]isoxazol-4-yl]pyrazolo[1,5-a]pyridin-2-yl]cyclopropanecarboxamide] | 236 |
| C[C@H]1CNC[C@H]1OCc1cnn(C)c1-c1ccn2nc(NC(=O)C3CC3)cc2c1 (single isomer, unassigned) [Example 194, (3*S,4*S)—N-[5-[2-methyl-4-[(4-methylpyrrolidin-3-yl)oxymethyl]pyrazol-3-yl]pyrazolo[1,5-a]pyridin-2-yl]cyclopropanecarboxamide] | 4.7 |
| Cn1ncc(CO[C@@H]2CNCC2(F)F)c1-c1ccn2nc(NC(=O)C3CC3)cc2c1 (single isomer, unassigned) [Example 189, (*R)—N-[5-[4-[(4,4-difluoropyrrolidin-3-yl)oxymethyl]-2-methyl-pyrazol-3-yl]pyrazolo[1,5-a]pyridin-2-yl]cyclopropanecarboxamide] | 12 |
| Cc1onc(OC[C@@]23C[C@@H](CO2)N(C)C3)c1-c1ccn2nc(NC(=O)C3CC3)cc2c1 [Example 203, N-[5-[5-methyl-3-[[(1S,4S)-2-methyl-5-oxa-2-azabicyclo[2.2.1]heptan-4-yl]methoxy]isoxazol-4-yl]pyrazolo[1,5-a]pyridin-2-yl]cyclopropanecarboxamide] | 27.4 |
| Cc1onc(OC[C@@H](N)c2ccccc2F)c1-c1ccn2nc(NC(=O)C3CC3)cc2c1 [Example 220, N-[5-[3-[(2S)-2-amino-2-(2-fluorophenyl)ethoxy]-5-methyl-isoxazol-4-yl]pyrazolo[1,5-a]pyridin-2-yl]cyclopropanecarboxamide] | 4.9 |
| CO[C@H]1CNC[C@H]1Oc1cnn(C)c1-c1ccn2nc(NC(=O)C3CC3)cc2c1 (stereo in doubt) [Example 5, N-(5-(4-(((3*R,4*S)-4-methoxypyrrolidin-3-yl)oxy)-1-methyl-1H-pyrazol-5-yl)pyrazolo[1,5-a]pyridin-2-yl)cyclopropanecarboxamide] | 10.9 |
| CN1C[C@H](c2ccccc2)C[C@@H]1COc1cnn(C)c1-c1ccn2nc(NC(=O)C3CC3)cc2c1 [Example 257, N-[5-[2-methyl-4-[[(2R,4S)-1-methyl-4-phenyl-pyrrolidin-2-yl]methoxy]pyrazol-3-yl]pyrazolo[1,5-a]pyridin-2-yl]cyclopropanecarboxamide] | 23.5 |
| Cc1cc(Nc2cc3cc(-c4c(OC[C@H]5CCN5)noc4C)ccn3n2)nc(C)n1 [Example 320, 5-[3-[[(2R)-azetidin-2-yl]methoxy]-5-methyl-isoxazol-4-yl]-N-(2,6-dimethylpyrimidin-4-yl)pyrazolo[1,5-a]pyridin-2-amine] | 50.8 |
| [2H]C([2H])([2H])C([2H])([2H])N1CC[C@@H]1COc1cnn(C)c1-c1ccn2nc(NC(=O)C3CC3)cc2c1 [Example 254, N-[5-[2-methyl-4-[[(2R)-1-(1,1,2,2,2-pentadeuterioethyl)azetidin-2-yl]methoxy]pyrazol-3-yl]pyrazolo[1,5-a]pyridin-2-yl]cyclopropanecarboxamide] | 1.5 |
| Cn1ncc(OC[C@H](O)c2ccccc2)c1-c1ccn2nc(NC(=O)C3CC3)cc2c1 [Example 403, N-[5-[4-[(2R)-2-hydroxy-2-phenyl-ethoxy]-2-methyl-pyrazol-3-yl]pyrazolo[1,5-a]pyridin-2-yl]cyclopropanecarboxamide] | 99.7 |
| CN1CCC[C@@H]1COc1cnn(C)c1-c1ccn2nc(Nc3ccc(C4CC4)nn3)cc2c1 [Example 284, N-(6-cyclopropylpyridazin-3-yl)-5-[2-methyl-4-[[(2R)-1-methylpyrrolidin-2-yl]methoxy]pyrazol-3-yl]pyrazolo[1,5-a]pyridin-2-amine] | 16.5 |
| Cc1cc(Nc2cc3cc(-c4c(OC[C@H]5CCN5CCF)cnn4C)ccn3n2)nc(C)n1 [Example 274, N-(2,6-dimethylpyrimidin-4-yl)-5-[4-[[(2R)-1-(2-fluoroethyl)azetidin-2-yl]methoxy]-2-methyl-pyrazol-3-yl]pyrazolo[1,5-a]pyridin-2-amine] | 0.9 |
| C[C@H]1[C@H](COc2cnn(C)c2-c2ccn3nc(NC(=O)C4CC4)cc3c2)CN1C (single isomer, unassigned) [Example 337, (2*S, 3*R)—N-[5-[4-[(1,2-dimethylazetidin-3-yl)methoxy]-2-methyl-pyrazol-3-yl]pyrazolo[1,5-a]pyridin-2-yl]cyclopropanecarboxamide] | 54.4 |
| Cc1onc(OC2CN(C)C2)c1-c1ccn2nc(NC(=O)C3CC3)cc2c1 [Example 494, N-[5-[5-methyl-3-(1-methylazetidin-3-yl)oxy-isoxazol-4-yl]pyrazolo[1,5-a]pyridin-2-yl]cyclopropanecarboxamide] | 424 |
| Cn1ncc(OC[C@H]2CNC[C@@H]2O)c1-c1ccn2nc(NC(=O)C3CC3)cc2c1 [Example 345, N-[5-[4-[[(3R,4R)-4-hydroxypyrrolidin-3-yl]methoxy]-2-methyl-pyrazol-3-yl]pyrazolo[1,5-a]pyridin-2-yl]cyclopropanecarboxamide] | 58.2 |
| Cc1onc(O[C@@H]2CCNC[C@@H]2F)c1-c1ccn2nc(NC(=O)C3CC3)cc2c1 (single isomer, unassigned) [Example 215, N-(5-(3-(((3*S,4*R)-3-fluoropiperidin-4-yl)oxy)-5-methylisoxazol-4-yl)pyrazolo[1,5-a]pyridin-2-yl)cyclopropanecarboxamide] | 27.5 |
| Cc1onc(OC[C@@H]2CCN2C)c1-c1ccn2nc(NC(=O)C3CC3)cc2c1 [Example 498] | 232 |
| C[C@@H]1CN(C)C[C@@H]1Oc1cnn(C)c1-c1ccn2nc(NC(=O)C3CC3)cc2c1 (single isomer, unassigned) [Example 418, (3*R,4*R)—N-[5-[4-(1,4-dimethylpyrrolidin-3-yl)oxy-2-methyl-pyrazol-3-yl]pyrazolo[1,5-a]pyridin-2-yl]cyclopropanecarboxamide] | 102 |
